Patent publication US7268147B2, “Compounds useful for the treatment of diseases” (Pfizer Inc, priority 2003, dated 2007)
pEC50: −log10 of the molar value.

These compounds were tested against T1, human β2 adrenergic receptor (Homo sapiens, UniProt P07550) (assay: Cell based cAMP β2 assay (cAMP-Flashplate, CHOhβ2 cells)). Conditions: CHO cells recombinantly expressing the human β2 adrenergic receptor.
T1 construct: expressed in transfected cells; host or cells: CHO (Chinese Hamster Ovary) cells, CHOhβ2
T1 sequence (P07550 whole entry): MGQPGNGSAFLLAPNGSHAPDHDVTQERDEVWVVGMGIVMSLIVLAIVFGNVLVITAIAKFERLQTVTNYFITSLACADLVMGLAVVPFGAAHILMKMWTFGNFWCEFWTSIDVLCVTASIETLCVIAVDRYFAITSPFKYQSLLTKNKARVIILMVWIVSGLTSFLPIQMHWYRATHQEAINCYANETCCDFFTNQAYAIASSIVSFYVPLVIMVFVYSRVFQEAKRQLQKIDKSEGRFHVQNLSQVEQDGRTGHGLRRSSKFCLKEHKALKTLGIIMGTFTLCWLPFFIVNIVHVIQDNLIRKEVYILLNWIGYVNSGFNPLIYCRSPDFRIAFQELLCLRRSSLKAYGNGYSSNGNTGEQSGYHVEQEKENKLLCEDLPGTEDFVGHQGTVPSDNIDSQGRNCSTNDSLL
Method: According to another alternative, the agonist potency for the β2 receptor of the compounds of the formula (1) may also be determined by the measure of the concentration of compound according to the present invention required to produce half maximal effect (EC50) for the β2 receptor.
10 mM/100% DMSO (dimethylsulfoxide) stock of compound is diluted to required top dose in 4% DMSO. This top dose is used to construct a 10-point semi-log dilution curve, all in 4% DMSO. […] Data was expressed as % Isoprenaline response.
Cells were seeded to give about 90% confluency for testing.
25 μl/well each dose of compound was transferred into a cAMP-Flashplate® (NEN, SMP004B), with 1% DMSO as basal controls and 100 nM Isoprenaline as max controls. This was diluted 1:2 by the addition of 25 μl/well PBS. […] Compounds were incubated with 50 μu/well cells for 1 hour. […] Dose-response data was expressed as % Isoprenaline activity and fitted using a four parameter sigmoid fit.
Work on C[C@H](Cc1cccc(CC(=O)NC2Cc3ccccc3C2)c1)NC[C@H](O)c1ccc(O)c(CO)c1 [Example 4, 2-(3-{(2R)-2-[(2R)-2-Hydroxy-2-(4-hydroxy-3-hydroxymethyl-phenyl)-ethylamino]-propyl}-phenyl)-N-indan-2-yl-acetamide] yielded a pEC50 of 10.92.
Compound C[C@H](Cc1cccc(CC(=O)NCc2ccccc2O)c1)NC[C@H](O)c1ccc(O)c(CO)c1 [Example 3, N-(2-Hydroxybenzyl)-2-(3-{(2R)-2-[(2R)-2-hydroxy-2-(4-hydroxy-3-hydroxymethyl-phenyl)-ethylamino]-propyl}-phenyl)-acetamide] has a pEC50 of 11.15.
In the case of C[C@H](Cc1cccc(CC(=O)NCc2ccc(C(N)=O)cc2)c1)NC[C@H](O)c1ccc(O)c(CO)c1 [Example 8, 4-{(2-(3-{(2R)-2-[(2R)-2-Hydroxy-2-(4-hydroxy-3-hydroxymethyl-phenyl)-ethylamino]-propyl}-phenyl)-acetylamino)-methyl}-benzamide], the pEC50 was 11.00.
C[C@H](Cc1cccc(CC(=O)NCc2ccc(Cl)c(Cl)c2)c1)NC[C@H](O)c1ccc(O)c(CO)c1 [Example 5, N-(3,4-Dichlorobenzyl)-2-(3-{(2R)-2-[(2R)-2-hydroxy-2-(4-hydroxy-3-hydroxymethyl-phenyl)-ethylamino]-propyl}-phenyl)-acetamide] gave a pEC50 of 10.62.
Compound COc1cccc(OC)c1CNC(=O)Cc1cccc(C[C@@H](C)NC[C@H](O)c2ccc(O)c(CO)c2)c1 [Example 1, N-(2,6-Dimethoxybenzyl)-2-(3-{(2R)-2-[(2R)-2-hydroxy-2-(4-hydroxy-3-hydroxymethyl-phenyl)-ethylamino]-propyl}-phenyl)-acetamide] has a pEC50 of 10.77.
C[C@H](Cc1cccc(CC(=O)NCCc2ccccc2)c1)NC[C@H](O)c1ccc(O)c(CO)c1 [Example 15, 2-(3-{(2R)-2-[(2R)-2-Hydroxy-2-(4-hydroxy-3-hydroxymethyl-phenyl)-ethylamino]-propyl}-phenyl)-N-(2-phenylethyl)acetamide] was tested, and the pEC50 was 10.25.
Compound C[C@H](Cc1cccc(CC(=O)NCc2ccc(S(N)(=O)=O)cc2)c1)NC[C@H](O)c1ccc(O)c(CO)c1 [Example 6, N-[4-(Aminosulfonyl)benzyl]-2-(3-{(2R)-2-[(2R)-2-hydroxy-2-(4-hydroxy-3-hydroxymethyl-phenyl)-ethylamino]-propyl}-phenyl)-acetamide] has a pEC50 of 11.15.
Cc1ccc(CNC(=O)Cc2cccc(C[C@@H](C)NC[C@H](O)c3ccc(O)c(CO)c3)c2)cc1C [Example 12, N-(3,4-Dimethylbenzyl)-2-(3-{(2R)-2-[(2R)-2-hydroxy-2-(4-hydroxy-3-hydroxymethyl-phenyl)-ethylamino]-propyl}-phenyl)-acetamide] gave a pEC50 of 11.05.
With C[C@H](Cc1cccc(CC(=O)NCc2ccccn2)c1)NC[C@H](O)c1ccc(O)c(CO)c1 [Example 7, 2-(3-{(2R)-2-[(2R)-2-Hydroxy-2-(4-hydroxy-3-hydroxymethyl-phenyl)-ethylamino]-propyl}-phenyl)-N-(pyridin-2-ylmethyl)-acetamide] the pEC50 was 10.55.
For C[C@H](Cc1cccc(CC(=O)NCc2ccc(OC(F)(F)F)cc2)c1)NC[C@H](O)c1ccc(O)c(CO)c1 [Example 10, 2-(3-{(2R)-2-[(2R)-2-Hydroxy-2-(4-hydroxy-3-hydroxymethyl-phenyl)-ethylamino]-propyl}-phenyl)-N-(4-trifluoromethoxybenzyl)-acetamide], the pEC50 was 9.94.
